Source: US8802597B2, “Herbicidal pyrimidines” (E I du Pont de Nemours and Company, priority 2003, dated 2014)

Tests used:
Assay type in all cases: in vivo
[1] = tested on: blackgrass (Alopecurus myosuroides); assay: Test B postemergence; details: for Blackgrass plant response rating: 125 g ai/ha, scale 0 to 100 (0 no effect, 100 complete control); for Plant response rating, Blackgrass: 500 g ai/ha, scale 0 to 100
Outline: (§1)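 Greenhouse whole-plant test; surfactant-containing non-phytotoxic solvent formulation; pre- and postemergence applications made simultaneously; post plants 2–18 cm, 1- to 4-leaf; visual scoring at 13–15 days on 0–100 scale relative to controls.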

[2] = tested on: wild oat (Avena fatua); assay: Test B postemergence; details: for Oat, Wild plant response rating: 125 g ai/ha, scale 0 to 100 (0 no effect, 100 complete control); for Plant response rating, Oat, Wild: 500 g ai/ha, scale 0 to 100
Outline: as §1

[3] = tested on: barnyardgrass (Echinochloa crus-galli); assay: Test B pre/postemergence
Outline: as §1

[4] = tested on: Surinam grass (Brachiaria decumbens); assay: Test B pre/postemergence
Outline: as §1

[5] = tested on: wheat (Triticum aestivum); assay: Test B pre/postemergence
Outline: as §1

[6] = tested on: giant foxtail (Setaria faberii); assay: Test B pre/postemergence
Outline: as §1

[7] = tested on: velvetleaf (Abutilon theophrasti); assay: Test B pre/postemergence
Outline: as §1

[8] = tested on: lambsquarters (Chenopodium album); assay: Test B pre/postemergence
Outline: as §1

[9] = tested on: pigweed (Amaranthus retroflexus); assay: Test B pre/postemergence
Outline: as §1

[10] = tested on: cocklebur (Xanthium strumarium); assay: Test B pre/postemergence
Outline: as §1

[11] = tested on: corn (Zea mays); assay: Test B pre/postemergence
Outline: as §1

[12] = tested on: morningglory (Ipomoea coccinea); assay: Test B pre/postemergence
Outline: as §1

[13] = tested on: crabgrass (Digitaria sanguinalis); assay: Test B pre/postemergence
Outline: as §1

[14] = tested on: barnyardgrass (Echinochloa crus-galli); assay: Test B flooded paddy test; details: Flood, 1000 g ai/ha; scale 0 (no effect) to 100 (complete control)
Outline: (§2)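 Plants were grown to the 2-leaf stage before treatment, then kept in a greenhouse for 13 to 15 days. Injury was rated visually against untreated controls on a 0 to 100 scale, where 0 is no effect and 100 is complete control.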

[15] = tested on: rice (Oryza sativa); assay: Test B flooded paddy test; details: Flood, 1000 g ai/ha; scale 0 to 100
Outline: as §2

[16] = tested on: umbrella sedge (Cyperus difformis); assay: Test B flooded paddy test; details: Flood, 1000 g ai/ha; scale 0 to 100
Outline: as §2

[17] = tested on: duck salad (Heteranthera limosa); assay: Test B flooded paddy test; details: Flood, 1000 g ai/ha; scale 0 to 100
Outline: as §2

[18] = Postemergence, 125 g ai/ha, scale 0 to 100 (0 no effect, 100 complete control)
[19] = Postemergence, 500 g ai/ha, scale 0 to 100
[20] = Preemergence, 125 g ai/ha, scale 0 to 100 (0 no effect, 100 complete control)
[21] = Preemergence, 500 g ai/ha, scale 0 to 100 (0 no effect, 100 complete control)

COC(=O)c1nc(C2CC2C)nc(N)c1Br (stereo not shown) [Compound 28]
Blackgrass plant response rating [1]: 10 | Plant response rating, Blackgrass [1]: 30 | Oat, Wild plant response rating [2]: 0 | Plant response rating, Oat, Wild [2]: 10 | Barnyardgrass plant response rating [3, 18]: 20 | Plant response rating, Barnyardgrass [3, 19]: 50 | Plant response rating, Barnyardgrass [3, 20]: 10 | Barnyardgrass plant response rating [3, 21]: 30 | Surinam Grass plant response rating [4, 18]: 10 | Plant response rating, Surinam Grass [4, 19]: 50 | Surinam Grass plant response rating [4, 21]: 60 | Wheat plant response rating [5, 18]: 0 | Plant response rating, Wheat [5, 19]: 10 | Plant response rating, Wheat [5, 20]: 10 | Wheat plant response rating [5, 21]: 40 | Foxtail, Giant plant response rating [6, 18]: 20 | Plant response rating, Foxtail, Giant [6, 19]: 40 | Plant response rating, Foxtail, Giant [6, 20]: 30 | Foxtail, Giant plant response rating [6, 21]: 50 | Velvetleaf plant response rating [7, 18]: 70 | Plant response rating, Velvetleaf [7, 19]: 90 | Plant response rating, Velvetleaf [7, 20]: 80 | Velvetleaf plant response rating [7, 21]: 90 | Lambsquarters plant response rating [8, 18]: 90 | Plant response rating, Lambsquarters [8, 19]: 90 | Plant response rating, Lambsquarters [8, 20]: 80 | Lambsquarters plant response rating [8, 21]: 100 | Pigweed plant response rating [9, 18]: 80 | Plant response rating, Pigweed [9, 19]: 90 | Plant response rating, Pigweed [9, 20]: 80 | Pigweed plant response rating [9, 21]: 90 | Cocklebur plant response rating [10, 18]: 90 | Plant response rating, Cocklebur [10, 19]: 100 | Plant response rating, Cocklebur [10, 20]: 80 | Cocklebur plant response rating [10, 21]: 90 | Corn plant response rating [11, 18]: 0 | Plant response rating, Corn [11, 19]: 0 | Plant response rating, Corn [11, 20]: 0 | Corn plant response rating [11, 21]: 0 | Morningglory plant response rating [12, 18]: 90 | Plant response rating, Morningglory [12, 19]: 90 | Plant response rating, Morningglory [12, 20]: 80 | Morningglory plant response rating [12, 21]: 90 | Crabgrass plant response rating [13, 18]: 30 | Plant response rating, Crabgrass [13, 19]: 50 | Plant response rating, Crabgrass [13, 20]: 70 | Crabgrass plant response rating [13, 21]: 80 | Plant response rating, Barnyardgrass [14]: 0 | Plant response rating, Rice [15]: 0 | Plant response rating, Sedge, Umbrella [16]: 0 | Plant response rating, Ducksalad [17]: 30

COC(=O)c1nc(C2CC2)nc(N=CN(C)C)c1Br [Compound 19]
Blackgrass plant response rating [1]: 60 | Plant response rating, Blackgrass [1]: 80 | Oat, Wild plant response rating [2]: 40 | Plant response rating, Oat, Wild [2]: 70 | Barnyardgrass plant response rating [3, 18]: 80 | Plant response rating, Barnyardgrass [3, 19]: 90 | Plant response rating, Barnyardgrass [3, 20]: 40 | Barnyardgrass plant response rating [3, 21]: 90 | Surinam Grass plant response rating [4, 18]: 40 | Plant response rating, Surinam Grass [4, 19]: 90 | Plant response rating, Surinam Grass [4, 20]: 60 | Surinam Grass plant response rating [4, 21]: 90 | Wheat plant response rating [5, 18]: 20 | Plant response rating, Wheat [5, 19]: 60 | Plant response rating, Wheat [5, 20]: 50 | Wheat plant response rating [5, 21]: 60 | Foxtail, Giant plant response rating [6, 18]: 20 | Plant response rating, Foxtail, Giant [6, 19]: 80 | Plant response rating, Foxtail, Giant [6, 20]: 20 | Foxtail, Giant plant response rating [6, 21]: 80 | Velvetleaf plant response rating [7, 18]: 70 | Plant response rating, Velvetleaf [7, 19]: 100 | Plant response rating, Velvetleaf [7, 20]: 90 | Velvetleaf plant response rating [7, 21]: 100 | Lambsquarters plant response rating [8, 18]: 100 | Plant response rating, Lambsquarters [8, 19]: 100 | Plant response rating, Lambsquarters [8, 20]: 100 | Lambsquarters plant response rating [8, 21]: 100 | Pigweed plant response rating [9, 18]: 90 | Plant response rating, Pigweed [9, 19]: 100 | Plant response rating, Pigweed [9, 20]: 90 | Pigweed plant response rating [9, 21]: 100 | Cocklebur plant response rating [10, 18]: 90 | Plant response rating, Cocklebur [10, 19]: 100 | Plant response rating, Cocklebur [10, 20]: 90 | Cocklebur plant response rating [10, 21]: 100 | Corn plant response rating [11, 18]: 30 | Plant response rating, Corn [11, 19]: 70 | Plant response rating, Corn [11, 20]: 70 | Corn plant response rating [11, 21]: 90 | Morningglory plant response rating [12, 18]: 100 | Plant response rating, Morningglory [12, 19]: 100 | Plant response rating, Morningglory [12, 20]: 90 | Morningglory plant response rating [12, 21]: 100 | Crabgrass plant response rating [13, 18]: 40 | Plant response rating, Crabgrass [13, 19]: 80 | Plant response rating, Crabgrass [13, 20]: 80 | Crabgrass plant response rating [13, 21]: 90 | Plant response rating, Barnyardgrass [14]: 80 | Plant response rating, Rice [15]: 60 | Plant response rating, Sedge, Umbrella [16]: 70 | Plant response rating, Ducksalad [17]: 80
